Measurements taken from patent US20230150922A1, “Fluorinated Derivatives of Gabapentin and Methods of Use Thereof” (The General Hospital Corporation, priority 2020, published 2023).
Read-outs that look alike come from different tables or passages of the source.

What was measured:
[1] = PET imaging of mice; conditions: FIG. 3F
[2] = PET imaging in rhesus macaques, baseline and gabapentin blocking scan; conditions: for brain penetration by PET: ~5 mCi i.v.; for specific (displaceable) binding in brain by PET: coinjection of gabapentin (5 mg/kg)
[3] = cited from earlier work; for patients with decreases in self-reported pain: oral

NCC1(CC(=O)O)CCC(F)CC1 (stereo not drawn) [cis-4F-GBP]
brain entry by PET [1]: get into the brain

NCC1(CC(=O)O)CCC([18F])CC1 (stereo not drawn) [trans-[^18F]4F-GBP, trans-[^18F]4-fluoro-gabapentin]
brain penetration by PET [2]: significant brain penetration

NCC1(CC(=O)O)CCCCC1 [gabapentin]
patients with decreases in self-reported pain ([3]; diabetic neuropathy): 52%
patients with decreases in self-reported pain ([3]; postherpetic neuralgia): 46%
subjects with reduction in facial pain ([3]; trigeminal neuralgia, 43 out of 92 subjects): 46%

NC[C@]1(CC(=O)O)CC[C@H]([18F])CC1 [cis-[^18F]4F-GBP, cis-[^18F]4-fluoro-gabapentin]
specific (displaceable) binding in brain by PET [2]: clear specific (displaceable) binding
specific (displaceable) binding in brain by PET ([2]; listed as cis isomer): partial displacement
brain penetration by PET [2]: significant brain penetration

NC[C@]1(CC(=O)O)CC[C@@H](F)CC1 [trans-4F-GBP]
brain entry by PET [1]: get into the brain
